According to patent publication US10933091B1, “Composition and method for the treatment of type I diabetes” (Vector Vitale IP LLC, priority 2019, dated 2021):

Columns and labels:
[1] = Intraperitoneal administration to intact rats: accumulation of metals in liver and kidney tissues; settings: day 1 and day 7 after discontinuation, in words
Description: The administration of these compositions was by intraperitoneal route.
Animals are placed in cages, 4 per cage, with free access to food/water. […] Administration is performed every other day, in the amount of 7 injections per animal (intraperitoneal method of drug administration). The dose of the drug injected to each animal was calculated on the basis of the ratio: 3750 μg of zinc per 1 kg of animal body weight. After the last injection, a half of the animals are maintained on hunger (for 12 hours) with free access to water. Upon expiration of this time period, the animals are taken out of the experiment. The second half of the animals continues to have free access to food/water for a further 7 days. On day 6 after the last injection, the animals are maintained on hunger (for 12 hours) with free access to water. Upon expiration of this time period, the animals are taken out of the experiment.
The total kidney, liver and muscle homogenates were prepared as follows. Organ excision and homogenization were carried out at a temperature of 1-4° C. Homogenization of tissues was carried out in 50 mM Tris-HCl buffer (pH 7.4) which contained 140 mM NaCl, 1 mM EDTA. The volume of the used buffer in ml was 5 times larger than the mass of isolated organs in grams. The isolated liver was perfused with chilled saline (0.9% NaCl) via the portal vein using a syringe. […]

[2] = Serum biochemistry (albumin, triglycerides, cholesterol, free fatty acids), diet-induced obesity study; settings: DIO rats (high-fat diet), week 10
Description: The levels of serum albumin in the animals were determined spectrophotometrically using a Microlab 300 biochemistry analyzer and standard PLIVA-Lachema Diagnostika test kits (Czech Republic).

[3] = system: alkaline phosphatase; settings: serum; DIO rats (high-fat diet), week 10
Description: To this end, high-fat diet obesity was induced in experimental animals as described in Example 2.
Serum alkaline phosphatase activity in the animals was measured spectrophotometrically using a Microlab 300 biochemical analyzer and standard PLIVA-Lachema Diagnostika test kits (Czech Republic).
As a result of hydrolytic cleavage of p-nitrophenyl phosphate catalyzed by alkaline phosphatase, p-nitrophenol is formed, which gives an intense yellow color in alkaline medium. The optical density of samples was measured at a wavelength of 405 nm. The alkaline phosphatase activity was expressed in relative units.

[4] = system: tryptophan, serotonin, monoamine oxidase; assay: Serum tryptophan, serotonin and monoamine oxidase activity; assay type: in vivo, rats
From the text: (§1) The samples were reprecipitated by centrifugation.
(§2) University. Medicine.-2000.-1, No. 494.-P. 40-43.

[5] = system: peripheral serotonergic system (duodenum); assay: Indicators of the peripheral serotonergic system (duodenum); assay type: in vivo, rats
From the text: (§3) The tissue: buffer ratio was 1:10.
as §1, §2
(§4) The supernatant was used in further studies.

[6] = Levels of divalent metal ions in muscles, kidneys and liver, diet-induced obesity study; settings: DIO rats (high-fat diet)
[7] = system: central serotonergic system (brain); assay: Indicators of the central serotonergic system (brain); assay type: in vivo, rats
From the text: as §3, §1, §2, §4

CC(=O)[O-].CC(=O)[O-].[Zn+2] [Zn acetate, Zinc acetate, reference compound]
zinc level in kidney and liver tissues [1]: significantly increased

N[C@@H](CC(=O)[O-])C(=O)[O-].[Zn+2] [^64Zne, zinc aspartate]
Albumin levels [2]: 166.2 ± 15.8 RU | Cholesterol [2]: 2.83 ± 0.23 mmol/L | Free fatty acids [2]: 31.62 ± 7.92 mg/L | Triglycerides [2]: 2.79 ± 0.30 g/L | Alkaline phosphatase activity [3]: 87.6 ± 18.7 RU | Serotonin ([4]; DIO rats (high-fat diet)): 6.33 ± 0.51 µg/g | Tryptophan ([4]; DIO rats (high-fat diet)): 66.65 ± 9.62 µg/g | Serotonin ([4]; control rats (standard diet)): 10.16 ± 0.62 µg/g | Tryptophan ([4]; control rats (standard diet)): 56.12 ± 7.58 µg/g | Serotonin ([5]; DIO rats (high-fat diet)): 9.73 µg/g | Tryptophan ([5]; DIO rats (high-fat diet)): 89.4 µg/g | Serotonin ([5]; control rats (standard diet)): 7.41 ± 0.54 µg/g | Tryptophan ([5]; control rats (standard diet)): 154.7 ± 13.6 µg/g | Zinc level ([6]; kidneys): 20.28 ± 1.75 μg/ tissue | Zinc level ([6]; liver): 31.43 ± 1.78 μg/ tissue | Zinc level ([6]; muscles): 9.10 ± 0.42 μg/ tissue | zinc level in kidney and liver tissues [1]: significantly increased | Serotonin ([7]; DIO rats (high-fat diet)): 20.1 µg/g | Tryptophan ([7]; DIO rats (high-fat diet)): 31.56 µg/g | Serotonin ([7]; control rats (standard diet)): 25.51 ± 2.71 µg/g | Tryptophan ([7]; control rats (standard diet)): 87.71 ± 3.41 µg/g
